In patent US20140128412A1, “COMBINATION OF AN ANT[…] AN ANTI-INFLAMMATORY AGENT” (priority 2011, published 2014):

Columns and labels:
Assay type in all cases: in vivo, human
plasma IL-1β = assay: Plasma IL-1β level by ELISA in the double-blind clinical trial; conditions: schizophrenic patients, FIG. 3A
Text: (§1) One hundred and thirty-seven Han Chinese schizophrenic patients and 67 Han Chinese healthy controls (age range: 20-59 years old) were recruited from the Department of Psychiatry at National Cheng Kung University Hospital and the National Defense Medical Center. All patients were screened for being used. The Chinese version of the SADS-L, which has good reliability and validity, was used to screen all participants for psychiatric conditions and whether they fit the DSM-IV diagnostic criteria for schizophrenia without any comorbidity. […]
(§2) Ten milliliters of whole blood was drawn and collected from each participant's antecubital vein at the screening visit (V), 0, 1, 2, 4, 6, 8, and 11 weeks. […] Plasma cytokine, CRP and BDNF concentrations were quantified using enzyme-linked immunosorbent assays (ELISA). A kit (Quantikine Human Cytokine kit; R&D Systems) and an ELISA reader (SpectraMax-M2; Molecular Devices) ELISA reader were used to analysis plasma IL-1β, TNF-α, CRP, and BDNF levels. […]

plasma TNF-α = assay: Plasma TNF-α level by ELISA in the double-blind clinical trial; conditions: schizophrenic patients, FIG. 3B
Text: (§3) One hundred and thirty-seven Han Chinese schizophrenic patients and 67 Han Chinese healthy controls (age range: 20-59 years old) were recruited from the Department of Psychiatry at National Cheng Kung University Hospital and the National Defense Medical Center. All patients were screened for being used. The Chinese version of the SADS-L, which has good reliability and validity, was used to screen all participants for psychiatric conditions and whether they fit the DSM-IV diagnostic criteria for schizophrenia without any comorbidity. Exclusion conditions were: 1) pregnant or nursing women; 2) women of childbearing potential not using adequate contraception as per investigator judgment or not willing to use contraception for the duration of study; 3) patients who had used dextromethorphan, other selective cyclooxygenase 2 inhibitors, or other anti-inflammatory medication within 1 week before the first dose of double-blind medication; 4) a major mental illness other than schizophrenia, including alcoholism and illegal substance use disorder; 5) a clinically significant medical condition, e.g., cardiac, hepatic, or renal disease with current evidence of poor control; 6) patient who had undergone electroconvulsive therapy within 4 weeks before the first dose of double-blind medication; 7) SGOT, SGPT, BUN, and creatinine levels/an SGOT, SGPT, BUN, or creatinine level greater than 3-fold the upper limit of normal. All the healthy controls were free of major and minor mental illness. All research involving humans was reviewed and approved by the National Chung Kung University and National Defense Medical Center Institutional Review Boards before the study began.
This study was a double-blind, stratified, randomized, parallel-group, two-center clinical trial. The treatment was risperidone plus a double-blind add-on of randomly assigned DM or a placebo. Participants began the study immediately after they had been screened for eligibility (screening visit: V). The pre-treatment study phase consisted of a 7-day (V to 0 week) antipsychotic switch-over period for patients (patient hospitalized) who were taking oral antipsychotic medication other than risperidone alone at the screening, or who had been using depot medication for an entire cycle before the screening. […]
as §2

plasma CRP = assay: Plasma CRP level by ELISA in the double-blind clinical trial; conditions: schizophrenic patients, FIG. 3C
Text: as §3, with “All research involving humans was reviewed and approved by the National Chung Kung University and National Defense Medical Center Institutional Review Boards before the study began.” left out
as §2

plasma BDNF = assay: Plasma BDNF level by ELISA in the double-blind clinical trial; conditions: schizophrenic patients, after 11 weeks of treatment; FIG. 3D
Text: as §1, §2

Cc1nc2n(c(=O)c1CCN1CCC(c3noc4cc(F)ccc34)CC1)CCCC2 [Risp only, risperidone]
change in plasma IL-1β levels (plasma IL-1β; after 11 weeks of treatment, risperidone 1-6 mg/day, DM 60 mg/day): significant decrease
time after which plasma IL-1β level fell (plasma IL-1β): 8 weeks
plasma TNF-α levels at the end of the study (plasma TNF-α; end of study (11 weeks) vs visit): significantly higher
course of plasma TNF-α levels during the study (plasma TNF-α; visit to 11 weeks): rose significantly
time after which plasma TNF-α levels rose significantly (plasma TNF-α): 4 weeks
time of peak plasma TNF-α level (plasma TNF-α): 6 weeks
plasma CRP level at start (first value of 'from ... to') (plasma CRP; before add-on treatment, mean±SEM): 2576.0±484.0
plasma CRP level at end (second value of 'from ... to') (plasma CRP; end of treatment, mean±SEM): 1946.0±369.6
change in plasma CRP levels (plasma CRP; over the study): tended to decrease but were not significantly different
change in plasma BDNF levels (plasma BDNF): did not change
